The source of these data is ChEMBL document CHEMBL1255427, “Lack of a clinically relevant effect of an antacid on the pharmacokinetics of lersivirine” (Antimicrob Agents Chemother, 2010).

Data set [1] can be described thus: Cmax in healthy human plasma at 750 mg after 24 hrs by HPLC-tandem mass spectrometry method. The class given is ADME, organism-based. Further details: dose 750 mg.
Data set [2] relates to Homo sapiens. In words: Toxicity in healthy human assessed as gastrointestinal tract related toxicity at 750 mg coadministered with 20 ml of antacid. The class given is organism-based. Conditions: in vivo.
Data set [3] is filed under the species Homo sapiens. In words: Toxicity in healthy human assessed as death at 750 mg. The class given is organism-based. Particulars: in vivo.
Data set [4] has as its system Homo sapiens. In words: Toxicity in healthy human assessed as death at 750 mg coadministered with 20 ml of antacid. In kind it is organism-based. Particulars: in vivo.
Data set [5] can be described thus: Tmax in healthy human plasma at 750 mg by HPLC-tandem mass spectrometry method. The class given is ADME, organism-based.
Data set [6] can be described thus: Cmax in healthy human plasma at 750 mg after 24 hrs coadministered with 20 ml of antacid by HPLC-tandem mass spectrometry method. Further details: dose 750 mg. In kind it is ADME, organism-based.
Data set [7] has as its system Homo sapiens. In words: Plasma concentration in healthy human plasma at 750 mg coadministered with 20 ml of antacid by HPLC-tandem mass spectrometry method. In kind it is ADME, organism-based. Particulars: in vivo.
Data set [8] in a line: Half life in healthy human plasma at 750 mg coadministered with 20 ml of antacid by HPLC-tandem mass spectrometry method. The class given is ADME, organism-based.
A short description of data set [9]: Half life in healthy human plasma at 750 mg by HPLC-tandem mass spectrometry method. The class given is ADME, organism-based.
A short description of data set [10]: Tmax in healthy human plasma at 750 mg coadministered with 20 ml of antacid by HPLC-tandem mass spectrometry method. In kind it is ADME, organism-based.
Data set [11] is filed under the species Homo sapiens. In words: Plasma concentration in healthy human plasma at 750 mg by HPLC-tandem mass spectrometry method. In kind it is ADME, organism-based. Conditions: in vivo.
The species entered for data set [12] is Homo sapiens. In words: Toxicity in healthy human assessed as gastrointestinal tract related toxicity at 750 mg. The class given is organism-based. Particulars: in vivo.
Data set [13] can be described thus: AUC (infinity) in healthy human plasma at 750 mg coadministered with 20 ml of antacid by HPLC-tandem mass spectrometry method. In kind it is ADME, organism-based. Further details: dose 750 mg, time infinity.
The species entered for data set [14] is Homo sapiens. In words: Toxicity in healthy human assessed as serious adverse events at 750 mg. The class given is organism-based. Conditions: in vivo.
A short description of data set [15]: AUC (infinity) in healthy human plasma at 750 mg by HPLC-tandem mass spectrometry method. The class given is ADME, organism-based. Set-up: dose 750 mg, time infinity.
The subject of data set [16] is Homo sapiens. In words: Toxicity in healthy human assessed as serious adverse events at 750 mg coadministered with 20 ml of antacid. Conditions: in vivo. In kind it is organism-based.

As to `CCc1nn(CCO)c(CC)c1Oc1cc(C#N)cc(C#N)c1` [LERSIVIRINE], the peak concentration (Cmax) in data set [1] came to 1520 ng/mL; in data set [6], 1450 ng/mL. In addition, the Activity result in data set [2] is listed as “Toxic”; in [3], “Non-toxic”; in data set [4] it was “Non-toxic”; in [12] it was “Toxic”; in [14], “Non-toxic”; in [16], “Non-toxic”. Besides, the Tmax in [5] turned out to be 5 h; in data set [10], 2 h. Moreover, the Cp in data set [7] was determined as 64.41 ng/mL; in data set [11], 83.41 ng/mL. Moreover, the half-life in data set [8] is 6.22 h; in data set [9] it was 6.91 h. Besides, the figures for the AUC(0-inf) in data set [13] and in [15] were 11200 ng·h/mL and 11000 ng·h/mL, respectively.

Broadly, the Cmax is the highest concentration seen after dosing. For orientation: Tmax means the time at which the peak concentration occurs. As a reminder, the half-life is how long it takes for the measured level to halve. A word on the AUC(0-inf): it is total exposure, with the tail of the curve extrapolated.
